Among the test systems are LOX IMVI melanoma; SW-620 colon; A549 NSCLC; HT29 colon; PC-3 prostate; A498 renal; DU-145 prostate; UACC-62 melanoma; NCI-H226 lung; SF-295 CNS; HCT-116 colon; MDA-MB-435; MDA-N; U251 CNS; CAKI-1 renal; TK-10 renal; SN12C renal; UO-31 renal; HOP-62 NSCLC; SR leukemia.
Common to all, as to experiment: DTP human tumour cell line panel, 48 h

The structures appear in SMILES notation.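 Tested at 5 concentrations; 48 h exposure; 96-well plates; endpoints linearly interpolated, else capped at highest concentration. At the TGI there is no net growth.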

A word on the TGI: it is the concentration giving total growth inhibition. Low values mean greater sensitivity of the cells, high ones lower sensitivity of the cells. As to `CCOP(=O)(OCC)/C(=C/c1ccccc1)CC(C)=O`, the TGI with LOX IMVI melanoma, with SW-620 colon, in the assay with A549 NSCLC, with HT29 colon, in the assay on PC-3 prostate and with A498 renal was > 100 µM each time. The TGI with DU-145 prostate, in the assay with UACC-62 melanoma, in the assay on NCI-H226 lung, in the assay on SF-295 CNS, in the assay with HCT-116 colon and with MDA-MB-435 was > 100 µM in each case. The TGI in the assay on MDA-N, in the assay on U251 CNS, in the assay on CAKI-1 renal, in the assay on TK-10 renal, in the assay on SN12C renal and in the assay with UO-31 renal was > 100 µM throughout. Further, the TGI in the assay on HOP-62 NSCLC is > 100 µM.
On to `CC(=O)OC[C@@]12CC[C@H]3C(C)(C)CCC[C@]3(C)[C@H]1C[C@@H](C1=CC(=O)O[C@H]1O)O2`, for which the TGI in the assay with LOX IMVI melanoma was found to be 3.42 µM; with SW-620 colon, 19.9 µM; in the assay with A549 NSCLC, 20.4 µM; in the assay on HT29 colon it was 7.71 µM; in the assay on PC-3 prostate, 17.4 µM; in the assay with DU-145 prostate, 20.4 µM. In addition, the total growth inhibition concentration (TGI) with UACC-62 melanoma turned out to be 4.74 µM; with SF-295 CNS it was 21.3 µM; with HCT-116 colon it was 9.07 µM; with MDA-MB-435, 4.6 µM; with MDA-N, 5.53 µM; in the assay with SR leukemia it was 4.08 µM. The TGI with CAKI-1 renal worked out at 5.21 µM; with TK-10 renal, 12 µM; with SN12C renal, 12.4 µM; in the assay on UO-31 renal, 4.95 µM; in the assay with HOP-62 NSCLC, 23 µM.
For the compound `CCOC(=O)C(Cc1ccc(OC(=O)c2ccc(OC)cc2OC)cc1)NC(=O)C(F)(F)F` (stereo not given), the concentration for total growth inhibition (TGI) was 36 µM in the assay on LOX IMVI melanoma; > 100 µM with SW-620 colon; > 100 µM with A549 NSCLC; 47.1 µM in the assay with HT29 colon; 48.1 µM with PC-3 prostate; 31.6 µM in the assay with A498 renal. Moreover, the TGI is 34.4 µM in the assay with DU-145 prostate; 30.5 µM in the assay on UACC-62 melanoma; > 100 µM in the assay with NCI-H226 lung; 91.5 µM with SF-295 CNS; > 100 µM with HCT-116 colon; 34.9 µM in the assay on MDA-MB-435. In addition, the TGI with MDA-N was 49.3 µM; in the assay on U251 CNS it was > 100 µM; with CAKI-1 renal, 75.8 µM; in the assay with TK-10 renal, 42.7 µM; in the assay on SN12C renal it was > 100 µM; with UO-31 renal, 34.5 µM. The compound also returned a total growth inhibition concentration (TGI) with HOP-62 NSCLC of 44.9 µM.
`NS(=O)(=O)c1cc(S(N)(=O)=O)c(NC(=O)Nc2ccc(Cl)c(Cl)c2)c(Cl)c1Cl`: the TGI in the assay on LOX IMVI melanoma, in the assay with SW-620 colon, in the assay with A549 NSCLC, with HT29 colon, with PC-3 prostate and with UACC-62 melanoma was > 100 µM throughout. In addition, the TGI in the assay on NCI-H226 lung, in the assay on SF-295 CNS, in the assay with HCT-116 colon, in the assay with MDA-MB-435, in the assay with MDA-N and in the assay with U251 CNS was > 100 µM each time. The concentration for total growth inhibition (TGI) in the assay on SR leukemia, with CAKI-1 renal, in the assay on TK-10 renal, in the assay on SN12C renal and in the assay with UO-31 renal was > 100 µM each time.
As for `CNC(=S)NNC1=NCCCN1`, the TGI in the assay on LOX IMVI melanoma, in the assay with SW-620 colon, in the assay with A549 NSCLC, in the assay on HT29 colon, in the assay with PC-3 prostate and with A498 renal was > 100 µM each time. Also, the total growth inhibition concentration (TGI) with UACC-62 melanoma, in the assay with NCI-H226 lung, with SF-295 CNS, in the assay on HCT-116 colon, in the assay with MDA-MB-435 and with MDA-N was > 100 µM each time. Moreover, the total growth inhibition concentration (TGI) in the assay with U251 CNS, with SR leukemia, in the assay with CAKI-1 renal, with TK-10 renal, with UO-31 renal and in the assay on HOP-62 NSCLC was > 100 µM each time.
Regarding `Cc1ccc2c(=O)c(-c3nnsn3)c[nH]c2n1`, the concentration for total growth inhibition (TGI) in the assay with LOX IMVI melanoma, in the assay with SW-620 colon, in the assay with A549 NSCLC, in the assay with HT29 colon, with PC-3 prostate and with A498 renal was > 100 µM each time. The concentration for total growth inhibition (TGI) in the assay on DU-145 prostate, in the assay with UACC-62 melanoma, with NCI-H226 lung, in the assay on SF-295 CNS, in the assay on HCT-116 colon and with MDA-MB-435 was > 100 µM throughout. Also, the total growth inhibition concentration (TGI) with MDA-N, with U251 CNS, with CAKI-1 renal, with TK-10 renal, in the assay with SN12C renal and in the assay with UO-31 renal was > 100 µM each time. The TGI with HOP-62 NSCLC is > 100 µM.
For `C=CC1(c2ccc(Cl)c(Cl)c2)OCCO1`, the TGI with LOX IMVI melanoma, in the assay with SW-620 colon, in the assay with A549 NSCLC, in the assay on HT29 colon, with PC-3 prostate and in the assay with DU-145 prostate was > 100 µM in each case. The TGI in the assay with UACC-62 melanoma, with NCI-H226 lung, with SF-295 CNS, in the assay with HCT-116 colon, with MDA-MB-435 and in the assay on MDA-N was > 100 µM throughout. The TGI is > 100 µM with U251 CNS; > 100 µM in the assay on SR leukemia; > 100 µM in the assay on TK-10 renal; > 100 µM in the assay with SN12C renal; > 100 µM in the assay with UO-31 renal; 22.8 µM in the assay on HOP-62 NSCLC.
With `NC(=S)SC1=NNC2(C(=O)N1)c1ccccc1-c1ccccc12`, the TGI with LOX IMVI melanoma, in the assay with SW-620 colon, with A549 NSCLC, in the assay with HT29 colon, in the assay with PC-3 prostate and with DU-145 prostate was > 10 µM each time. Also, the concentration for total growth inhibition (TGI) in the assay on UACC-62 melanoma, with NCI-H226 lung, with SF-295 CNS, with HCT-116 colon, in the assay on MDA-MB-435 and in the assay on MDA-N was > 10 µM throughout. In addition, the TGI in the assay with SR leukemia, in the assay with CAKI-1 renal, in the assay with TK-10 renal, in the assay with SN12C renal, in the assay with UO-31 renal and with HOP-62 NSCLC was > 10 µM in each case.

(Values after PubChem BioAssay (NCI).)
